Reference: ChEMBL document CHEMBL1121433, “New cyclopenta[a]naphthalene derivatives. Synthesis of 2-(carbamylmethyl)-8-hydroxy-3H-cyclopental[a]naphthalene as a possible deoxyribonucleic acid binding agent” (1980)

Columns and labels:
L1210 = test: Tested for inhibition of compound against growth of L1210 cells at 3.2E-5 M; format: functional, Mus musculus
CCRF-CEM = test: Tested for inhibition of compound against growth of CCRF-CEM cells at 1.0E-4 M; format: functional, Homo sapiens

NC(=O)CC1=Cc2c(ccc3ccc(O)cc23)C1
Inhibition (L1210): 25% | Inhibition (CCRF-CEM): 25%
